{"source": "patent US8486974B2", "about": "(priority 2007, dated 2013)", "key": {"[1]": {"experiment": "Hydrolysis and aspirin release in buffered human plasma solution (HPLC)", "conditions": "for aspirin production / aspirin produced: 50% human plasma"}, "[2]": {"conditions": "human, 2.4 µM, pH 7.4"}, "[3]": {"conditions": "cited from earlier work"}, "[4]": {"target": "horse plasma butyrylcholinesterase (Equus caballus, UniProt P81908)", "sequence (P81908 whole entry)": "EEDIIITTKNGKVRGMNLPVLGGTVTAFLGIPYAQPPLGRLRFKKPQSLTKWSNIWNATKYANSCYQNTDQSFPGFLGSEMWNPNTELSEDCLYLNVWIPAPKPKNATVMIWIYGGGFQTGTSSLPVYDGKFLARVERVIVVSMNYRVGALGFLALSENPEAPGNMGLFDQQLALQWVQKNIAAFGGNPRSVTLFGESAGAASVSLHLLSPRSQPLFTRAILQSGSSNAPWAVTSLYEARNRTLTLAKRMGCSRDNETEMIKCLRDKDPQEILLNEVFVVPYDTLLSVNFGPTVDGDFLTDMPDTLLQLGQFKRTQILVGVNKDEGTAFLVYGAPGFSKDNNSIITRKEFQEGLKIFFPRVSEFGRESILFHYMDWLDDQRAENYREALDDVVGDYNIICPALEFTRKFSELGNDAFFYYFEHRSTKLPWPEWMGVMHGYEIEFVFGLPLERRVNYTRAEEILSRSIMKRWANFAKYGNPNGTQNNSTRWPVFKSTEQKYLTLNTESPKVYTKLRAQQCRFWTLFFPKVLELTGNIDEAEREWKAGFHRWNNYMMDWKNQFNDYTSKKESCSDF", "conditions": "cited from earlier work"}, "[5]": {"system": "platelet aggregation in human whole blood", "experiment": "Whole blood aggregation studies (impedance method)", "type": "cell-based", "conditions": "Homo sapiens, Platelet; arachidonic acid; impedance method; read-out: IC50, platelet aggregation towards arachidonic acid in human whole blood", "protocol": "A 500 μl aliquot of blood was mixed with 500 μl of physiological saline and allowed to incubate at 37° C. for 10 mins in the incubation well of a Chrono-Log Whole Blood Aggregometer model 591/592. The sample was then transferred to the assay well, baseline was established and appropriate volume of reagent as above was added. Aggregation was monitored over 6 mins with impedance output recorded on a chart recorder. When testing inhibitors whole blood was pre-incubated with appropriate concentrations of inhibitor in DMSO at 37° C. for a specified length of time before adding the stimulant (10 mins with stirring). Three different aggregating agents, AA (0.5 mM), ADP (10 μM) and Collagen (5 μg/ml) were used. […] DMSO in high concentrations (above 0.25%) can induce a concentration dependent change in platelet cytoplasmic ionised calcium. Before each experiment a control was run using PRP to obtain normal aggregating responses. A sample was also incubated for 10 min at 37° C. with 10 μl DMSO to ensure it was having no inhibitory effect on the aggregation response."}, "[6]": {"conditions": "in vivo; cited from earlier work"}, "[7]": {"system": "GPIIb/IIIa", "experiment": "Flow cytometry of activated GPIIb/IIIa (PAC-1) on platelets", "type": "cell-based, human", "protocol": "In order to analyze receptor expression on the surface of individual platelets and to minimize platelet activation caused by sample preparation procedures, no stirring or vortexing steps were used. The abundance of activated GPIIb/IIIa and P-selectin on the surface of platelets in the presence and absence of inhibitors was measured by flow cytometry. Platelet samples were first activated with agonists either collagen or ADP. When platelet aggregation reached 50% maximal light transmission the reaction was terminated by 10-fold dilution with physiologic saline. Resting platelets were used as control. In most of the experiments, platelets were preincubated with inhibitors for 10 min prior to the addition of agonists. Platelet samples were then incubated in the dark without stirring for 5 min at room temperature in the presence of saturating concentrations (10 μg/ml) of P-selectin (CD62P-APC). The activated GPIIb/IIIa platelet receptors were measured using PAC-1 monoclonal antibody at the same concentration as above. PAC-1 specifically recognizes an epitope on the high-affinity GPIIb/IIIa complex of activated platelets at or near the […]. Following incubation, samples were diluted in FACS Flow fluid and analyzed within 5 min using a BD FACSArray (BD Biosciences, Oxford, UK). Flow cytometry was performed on single stained platelet samples as described before^3. The instrument was set up to measure the size (forward scatter), granularity (side scatter) and cell fluorescence. A two-dimensional analysis gate of forward and side scatter was drawn in order to include single platelets and exclude platelet aggregates and microparticles. Antibody binding was measured by analyzing individual platelets for fluorescence. The mean fluorescence intensity was determined after correction for cell autofluorescence. For each sample, the fluorescence was analyzed using a logarithmic scale. Fluorescence histograms were obtained for 10,000 individual events. Data were analyzed using Cytometer RXP software and expressed as a percentage of control fluorescence in arbitrary units."}, "[8]": {"system": "human platelet aggregation to arachidonic acid", "experiment": "Human platelet aggregation to arachidonic acid in platelet rich plasma", "type": "cell-based", "conditions": "Homo sapiens, platelet rich plasma", "protocol": "(§1) Blood was collected from healthy volunteers who had not taken any drugs known to affect platelet function for at least 14 days prior to the study. Platelet rich plasma (PRP) and washed platelet suspensions (2.5×10^8 platelets/ml) were prepared from blood as previously described.\n(§2) Platelet aggregation was measured by light aggregometry as previously described. Briefly, PRP and washed platelet samples (2.5×10^8/ml) were placed in a whole blood ionized calcium lumi-aggregometer (Chronolog Corp., Havertown, Pa., U.S.A), and (BIO/DATA CORPORATION) and incubated for 10 min at 37° C., with stirring at 900 r.p.m., prior to the addition of aggregating agents. Aggregation was initiated by the addition of agonists, and monitored by Aggro-Link software for at least 6 min. For experiments using inhibitors, aggregation was initiated after 10 min preincubation with these compounds"}, "[9]": {"target": "T1, purified human serum BuChE (Homo sapiens, UniProt P06276)", "T1 construct": "Purified human serum butyrylcholinesterase (EC 3.1.1.8); purchased Sigma-Aldrich; host or cells: human serum", "T1 sequence (P06276 29-602)": "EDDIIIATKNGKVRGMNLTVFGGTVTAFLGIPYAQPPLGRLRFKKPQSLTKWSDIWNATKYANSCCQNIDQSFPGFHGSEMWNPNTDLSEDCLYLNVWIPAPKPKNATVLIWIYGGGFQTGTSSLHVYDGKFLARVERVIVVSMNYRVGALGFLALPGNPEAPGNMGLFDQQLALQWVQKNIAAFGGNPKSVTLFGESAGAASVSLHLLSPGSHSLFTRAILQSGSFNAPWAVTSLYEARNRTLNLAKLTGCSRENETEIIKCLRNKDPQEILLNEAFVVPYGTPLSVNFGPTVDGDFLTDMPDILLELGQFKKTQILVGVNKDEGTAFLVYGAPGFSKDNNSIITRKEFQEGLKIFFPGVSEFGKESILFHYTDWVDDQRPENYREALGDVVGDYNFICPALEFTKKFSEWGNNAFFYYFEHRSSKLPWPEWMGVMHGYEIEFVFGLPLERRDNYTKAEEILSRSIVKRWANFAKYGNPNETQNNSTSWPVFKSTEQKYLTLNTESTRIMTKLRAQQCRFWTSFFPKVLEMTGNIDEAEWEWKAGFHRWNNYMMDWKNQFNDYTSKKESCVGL", "experiment": "Hydrolysis by purified human serum butyrylcholinesterase", "type": "in vitro ADME", "conditions": "Purified human serum (0.15 mg/ml); conc drug 0.12 mM", "protocol": "Pooled plasma/serum solutions (4 ml) were prepared to the correct strength by dilution of plasma with phosphate buffer pH 7.4 (e.g. for a 10% solution 0.4 ml of plasma/serum was added to 3.6 ml of phosphate buffer pH 7.4). Following equilibration of the plasma/serum sample at 37±0.5° C. 100 μl of a stock solution of test compound in acetonitrile (1×10^−4 M) was added and 250 μl aliquots were removed at specified time intervals. Samples were transferred to 1.5 ml Eppendorf tubes containing 500 μl of a 2% w/v solution of nSO4.7H2O (water:acetonitrile, 1:1). Tubes were vortexed for 2 minutes, then centrifuged at 10,000 rpm for 3 minutes at room temperature. Supernatant was aspirated off and analysed by HPLC. The concentration of test compound and metabolites were determined with reference to calibration curves run on that day in the same concentration range and under the same experimental conditions. In order to mimic conditions during the first passage of the drugs after intestinal absorption selected compounds were incubated in phosphate buffer at 37° C. in the presence of microsomes from human liver (HLM) and intestinal epithelium (HIM). The metabolic fate of the esters under these conditions was also determined by RPHPLC by measuring the concentration of drug and metabolites in the medium as a function of time. The identity of participating enzymes was confirmed by using purified enzyme in the case of plasma (BuChE) and by repeating the hydrolysis experiments in the presence of esterase specific inhibitors—isoOMPA for BuChE and BNPP for carboxylesterase. The BuChE activity of plasma and microsomal samples was determined using the Ellman assay (Ellman et al., 1964)."}, "[10]": {"system": "ADP-induced platelet aggregation", "experiment": "ADP-induced platelet aggregation in PRP", "type": "cell-based, human", "protocol": "as §1, §2\n(§3) Collagen at different concentrations (3-5 ug/ml) was also used to induce platelet aggregation. The submaximal concentrations of agonists, i.e. the concentrations that gave approximately 95% of the maximal aggregation were used to study the effects of inhibitors of aggregation. Results were expressed in percent changes in maximal light transmission, with 100% representing light transmission of platelet medium alone."}, "[11]": {"system": "collagen-induced human platelet aggregation", "experiment": "Collagen-induced human platelet aggregation in vitro", "type": "cell-based", "protocol": "as §1, §2, §3"}, "[12]": {"conditions": "phosphate buffered human plasma solutions (Gilmer et al., 2002)"}}}
{"molecule": "CC(=O)Oc1ccccc1C(=O)O[C@@H]1CO[C@H]2[C@@H]1OC[C@@H]2O", "note": "[Compound 5-aspirinate, isosorbide-5-aspirinate, reference compound]", "values": [{"measurement": "acts as aspirin prodrug in human plasma", "setting": "[1]; human plasma", "result": "None of these acted as aspirin prodrugs"}]}
{"molecule": "CC(=O)Oc1ccccc1C(=O)O[C@H]1CO[C@H]2[C@@H]1OC[C@H]2OC(=O)c1ccccc1OC(C)=O", "note": "[Compound 16, Isosorbide-di-aspirinate]", "values": [{"measurement": "hydrolysis along unproductive salicylate pathway", "setting": "[2]", "result": 40, "unit": "%"}, {"measurement": "aspirin produced in phosphate buffered human plasma solutions", "setting": "[3]; [12]", "result": "approximately 60%"}, {"measurement": "hydrolysed along the unproductive salicylate pathway", "setting": "[3]; [12]", "result": 40, "unit": "%"}, {"measurement": "aspirin generated", "setting": "[4]", "result": 11, "unit": "%"}]}
{"molecule": "CC(=O)Oc1ccccc1C(=O)O[C@H]1CO[C@H]2[C@@H]1OC[C@H]2O", "note": "[Compound 17, Isosorbide-2-aspirinate-5-OH, reference compound]", "values": [{"measurement": "molar % aspirin released in 10% human plasma", "setting": "[1]; 10% human plasma, pH 7.4, 37° C., peak aspirin as percentage of initial ester concentration in moles", "result": 2.95, "unit": "%"}, {"measurement": "Half-life in 10% human plasma", "setting": "[1]; 10% human plasma, phosphate buffer pH 7.4, 37° C.", "result": 4.08, "unit": "min"}, {"measurement": "acts as aspirin prodrug in human plasma", "setting": "[1]; human plasma", "result": "is not an aspirin prodrug"}, {"measurement": "acts as aspirin prodrug in human plasma", "setting": "[1]; human plasma, listed as 2-aspirinate", "result": "None of these acted as aspirin prodrugs"}]}
{"molecule": "CC(=O)Oc1ccccc1C(=O)O", "note": "[aspirin]", "values": [{"measurement": "IC50", "setting": "[5]", "result": 25, "unit": "µM"}, {"measurement": "half-life in the body", "setting": "[6]", "result": 20, "unit": "min"}, {"measurement": "half-life in dilute plasma", "setting": "[3]; dilute plasma", "result": "around one"}, {"measurement": "constitutive platelet glyco-protein expression", "setting": "[7]; concentrations at which aspirin has no effect", "result": "has no effect"}, {"measurement": "inhibition of platelets activation", "setting": "[7]; same concentration like ISAS (2) or nitrate compounds 31-32", "result": "failed to inhibit platelets activation"}, {"measurement": "IC50", "setting": "[8]", "result": 5, "unit": "µM"}]}
{"molecule": "Isosorbide-2-aspirinate-5-(2-nitrooxy-methyl)benzoate [Compound 31]", "values": [{"measurement": "aspirin production", "setting": "[1]", "result": 10.3, "unit": "µM"}, {"measurement": "aspirin produced", "setting": "[1]; drug 1×10^−4 M", "result": 10.3, "unit": "µM"}]}
{"molecule": "Isosorbide-2-aspirinate-5-(3-nitrooxy-methyl)benzoate [Compound 32]", "values": [{"measurement": "Aspirin", "setting": "[9]", "result": 15, "unit": "µM"}, {"measurement": "Drug disappearace", "setting": "[9]", "result": 10, "unit": "min"}, {"measurement": "Salicylic acid", "setting": "[9]", "result": 6, "unit": "µM"}, {"measurement": "Aspirin", "setting": "[1]; 50% HP, conc drug 0.25 mM", "result": 26, "unit": "µM"}, {"measurement": "Salicylic acid", "setting": "[1]; 50% HP, conc drug 0.25 mM", "result": 18, "unit": "µM"}, {"measurement": "aspirin production", "setting": "[1]", "result": 26, "unit": "µM"}, {"measurement": "aspirin produced", "setting": "[1]; drug 2.5×10^−4 M", "result": 26, "unit": "µM"}, {"measurement": "Salicylic acid", "setting": "[1]; 80% HP, conc drug 0.1 mM", "result": 9, "unit": "µM"}]}
{"molecule": "Isosorbide-2-aspirinate-5-(4-nitrooxy-methyl) benzoate [Compound 33]", "values": [{"measurement": "aspirin production", "setting": "[1]", "result": 2, "unit": "µM"}, {"measurement": "aspirin produced", "setting": "[1]; drug 1×10^−4 M", "result": 2, "unit": "µM"}]}
{"molecule": "Isosorbide-2-aspirinate-5-(p-cyanobenzoate) [Compound 20]", "values": [{"measurement": "potency relative to aspirin, inhibition of ADP-induced platelet aggregation", "setting": "[10]", "result": "more potent inhibitor"}, {"measurement": "potency relative to aspirin, inhibition of collagen-induced human platelet aggregation", "setting": "[11]", "result": "more potent than aspirin"}]}
{"molecule": "Isosorbide-2-aspirinate-5-[2-methylbenzoate] [Compound 1]", "values": [{"measurement": "aspirin release (hydrolysis along the aspirin pathway) in human plasma", "setting": "[1]; human plasma", "result": "around 60%"}]}
